Reference: ChEMBL document CHEMBL1135211, “Non-covalent thrombin inhibitors featuring P3-heterocycles with P1-bicyclic arginine surrogates” (Bioorg Med Chem Lett, 2002)

Key:
[1] = Cmax in dog plasma after oral dose (1 mg/kg); assay type: ADME, organism-based, Canis lupus familiaris; set-up: dose 1 mg/kg, route oral
in vivo [2] = settings: dog, po, 1 mg/kg
Prothrombin = Prothrombin (Homo sapiens, UniProt P00734); test: In vitro inhibitory activity against human Thrombin (FIIa) cleavage of the chromogenic substrate
[3] = Ionisation constant (pKa); assay type: physicochemical
in vivo [4] = settings: dog, po, 1 mg/kg; remark: listed apart in the source

SMILES | Cmax [1] | half-life (in vivo [2]) | Ki (Prothrombin) | pKa [3] | AUC (in vivo [4]; plasma) | AUC (in vivo [4]; in vivo)
Cc1cnc(NCC(F)(F)c2ccccc2)c(=O)n1CC(=O)NCc1ccc2c(N)noc2c1 | 1200 ng/mL | 3.28 h | 2.5 nM | 8.6 | 6030 ng·h/mL | –
Cc1ccc(NS(=O)(=O)Cc2ccccc2)c(=O)n1CC(=O)NCc1ccc2[nH]ncc2c1 | 410 ng/mL | 0.6 h | 8.7 nM | – | 515 ng·h/mL | –
Cc1n[nH]c2ccc(CNC(=O)Cn3c(C)cnc(NCCc4ccccc4)c3=O)cc12 | – | – | 444 nM | – | – | –
Cc1cnc(NCC2(c3ccccn3)CC2)c(=O)n1CC(=O)NCc1ccc2c(N)noc2c1 | 770 ng/mL | 1.67 h | 25.9 nM | 8.6 | 2230 ng·h/mL | –
Cc1cnc(NCC(c2ccccc2)c2ccccc2)c(=O)n1CC(=O)NCc1ccc2c(N)noc2c1 | 300 ng/mL | 4.17 h | 31 nM | 8.6 | 2200 ng·h/mL | –
Cc1nc2cc(CNC(=O)Cn3c(C)cnc(NCCc4ccccc4)c3=O)ccc2[nH]1 | – | – | > 3970 nM | 6.4 | – | –
Cc1cnc(NC[C@@H](C)c2ccccc2)c(=O)n1CC(=O)NCc1ccc2[nH]cnc2c1 | 480 ng/mL | 1.15 h | 9.3 nM | 5.8 | 1010 ng·h/mL | –
CCc1cnc(NCCc2ccccc2)c(=O)n1CC(=O)NCc1ccc2[nH]ccc2c1 | 310 ng/mL | 1.4 h | 23.7 nM | – | 523 ng·h/mL | –
COc1cccc(S(=O)(=O)Nc2cccn(CC(=O)NCc3ccc4c(N)[nH]nc4c3)c2=O)c1 | 350 ng/mL | 1.85 h | – | 3.8 | 1040 ng·h/mL | –
Cc1cnc(NCCc2ccccc2)c(=O)n1CC(=O)NCc1ccc2nc(N)sc2c1 | – | – | > 3970 nM | 7.5 | – | –
COc1ccc(CCNc2ncc(C)n(CC(=O)NCc3ccc4[nH]cnc4c3)c2=O)cc1 | 190 ng/mL | 1.52 h | 5 nM | 5.8 | 458 ng·h/mL | –
Cc1cnc(NCCc2ccccc2)c(=O)n1CC(=O)NCc1ccc2[nH]cnc2c1 | 390 ng/mL | 1.77 h | – | 5.8 | 1630 ng·h/mL | –
Cc1cnc(NCCc2ccccn2)c(=O)n1CC(=O)NCc1ccc2[nH]ncc2c1 | – | – | 3.1 nM | – | – | –
Cc1cnc(NCCc2ccccc2)c(=O)n1CC(=O)NCc1ccc2[nH]ncc2c1 | – | – | 18.4 nM | – | – | –
Cc1ccc(NS(=O)(=O)c2ccc3c(c2)CCO3)c(=O)n1CC(=O)NCc1ccc2c[nH]nc2c1 | – | – | 1320 nM | – | – | –
Cc1cnc(NCCc2ccccc2)c(=O)n1CC(=O)NCc1ccc2[nH]nc(O)c2c1 | 30 ng/mL | – | 33 nM | 6.3 | 18.3 ng·h/mL | –
Cc1cnc(NCCc2ccc3c(c2)CCO3)c(=O)n1CC(=O)NCc1ccc2[nH]ncc2c1 | – | – | 2.9 nM | – | – | –
Cc1ccc(NS(=O)(=O)Cc2ccc(Br)cc2)c(=O)n1CC(=O)NCc1ccc2c(N)noc2c1 | 1520 ng/mL | 1.82 h | 22.2 nM | 8.6 | 5470 ng·h/mL | –
Cc1ccc(NS(=O)(=O)c2ccc3c(c2)CCO3)c(=O)n1CC(=O)NCc1ccc2[nH]nc(N)c2c1 | 230 ng/mL | 1.2 h | 28.7 nM | 3.6 | 298 ng·h/mL | –
COc1ccc(C2(CNc3ncc(C)n(CC(=O)NCc4ccc5[nH]nc(N)c5c4)c3=O)CC2)cc1 | 1370 ng/mL | 1.48 h | 9 nM | 3.6 | 3270 ng·h/mL | –
Cc1ccc(NS(=O)(=O)Cc2ccccc2)c(=O)n1CC(=O)NCc1ccc2c(N)[nH]nc2c1 | 580 ng/mL | 1.4 h | 224 nM | 3.8 | 1310 ng·h/mL | –
Cc1ccc(NS(=O)(=O)Cc2ccccc2)c(=O)n1CC(=O)NCc1ccc2onc(N)c2c1 | 240 ng/mL | 2.2 h | – | 8.2 | 630 ng·h/mL | –
Cc1cnc(NC[C@H](C)c2ccccc2)c(=O)n1CC(=O)NCc1ccc2[nH]ncc2c1 | – | – | 5.7 nM | – | – | –

SMILES | Cmax [1] | half-life (in vivo [2]) | Ki (Prothrombin) | pKa [3] | AUC (in vivo [4]; plasma) | AUC (in vivo [4]; in vivo)
Cc1ccc(NS(=O)(=O)Cc2ccccc2)c(=O)n1CC(=O)NCc1ccc2c(N)noc2n1 | 280 ng/mL | 0.6 h | 203 nM | 4.7 | 237 ng·h/mL | –
Cc1cnc(NCCc2ccccc2)c(=O)n1CC(=O)NCc1ccc2[nH]nc(N)c2c1 | 1030 ng/mL | 2.77 h | – | 3.6 | 4850 ng·h/mL | –
Cc1cnc(NCCc2ccccc2)c(=O)n1CC(=O)NCc1ccc2[nH]nnc2c1 | – | – | 224 nM | – | – | –
COc1cccc(CCNc2ncc(C)n(CC(=O)NCc3ccc4[nH]ncc4c3)c2=O)c1 | – | – | 10.4 nM | – | – | –
Cc1ccc(NS(=O)(=O)Cc2ccccc2)c(=O)n1CC(=O)NCc1ccc2c(N)[nH]nc2n1 | – | – | 1590 nM | 6.7 | – | –
Cc1ccc(NS(=O)(=O)Cc2ccc(Cl)cc2)c(=O)n1CC(=O)NCc1ccc2[nH]cnc2c1 | 170 ng/mL | 1.15 h | 6.5 nM | 5.8 | 202 ng·h/mL | –
Cc1cnc(NCC2(c3ccc(F)cc3)CC2)c(=O)n1CC(=O)NCc1ccc2c(N)noc2c1 | 850 ng/mL | 2.17 h | 15.5 nM | 8.6 | 3150 ng·h/mL | –
Cc1cc2cn[nH]c2cc1CNC(=O)Cn1c(C)ccc(NS(=O)(=O)Cc2ccccc2)c1=O | – | – | 271 nM | 4 | – | –
Cc1cnc(NCC2(c3ccccc3)CCC2)c(=O)n1CC(=O)NCc1ccc2[nH]nc(O)c2c1 | – | – | 10 nM | 6.3 | – | –
Cc1cnc(NCCc2ccc3c(c2)CCC3)c(=O)n1CC(=O)NCc1ccc2[nH]ccc2c1 | – | – | 29.8 nM | – | – | –
Cc1cnc(NCC(F)(F)c2ccccc2)c(=O)n1CC(=O)NCc1ccc2[nH]nc(N)c2c1 | 960 ng/mL | 3.63 h | 4.1 nM | 3.6 | 5930 ng·h/mL | –
Cc1cnc(NCC2(c3ccc(F)cc3)CC2)c(=O)n1CC(=O)NCc1ccc2[nH]nc(N)c2c1 | 880 ng/mL | 2.07 h | 15.4 nM | 3.6 | 2950 ng·h/mL | –
Cc1cnc(NCCc2ccccc2)c(=O)n1CC(=O)NCc1ccc2c(N)noc2c1 | 1030 ng/mL | 2.52 h | 82.2 nM | 8.6 | 3950 ng·h/mL | –
COc1cccc(S(=O)(=O)Nc2cccn(CC(=O)NCc3ccc4[nH]nc(N)c4c3)c2=O)c1 | 930 ng/mL | 4.57 h | 325 nM | 3.6 | 3950 ng·h/mL | –
Cc1cnc(NCCc2ccc(F)cc2)c(=O)n1CC(=O)NCc1ccc2c(N)noc2c1 | 640 ng/mL | 4.35 h | 17.6 nM | 8.6 | 4680 ng·h/mL | –
Cc1cnc(NCCc2ccc3c(c2)CCC3)c(=O)n1CC(=O)NCc1ccc2c(ccn2N)c1 | – | – | 12400 nM | 7.4 | – | –
Cc1ccc(NS(=O)(=O)Cc2ccccc2)c(=O)n1CC(=O)NCc1ccc2[nH]nc(N)c2c1 | – | – | 72.9 nM | 3.6 | – | –
Cc1ccc(NS(=O)(=O)c2ccc3c(c2)CCO3)c(=O)n1CC(=O)NCc1ccc2[nH]ncc2c1 | – | – | 3.9 nM | – | – | –
Cc1ccc(NS(=O)(=O)Cc2ccccc2)c(=O)n1CC(=O)NCc1ccc2c(N)noc2c1 | 1600 ng/mL | 1.55 h | 74.3 nM | 8.6 | 3680 ng·h/mL | –
Cc1cnc(NCC2(c3ccccc3)CCC2)c(=O)n1CC(=O)NCc1ccc2c(N)noc2c1 | 620 ng/mL | 1.95 h | 10.2 nM | 8.6 | 2150 ng·h/mL | –
Cc1cnc(NCCc2ccccc2)c(=O)n1CC(=O)NCc1ccc2cn[nH]c2c1 | 960 ng/mL | 0.417 h | – | – | 2200 ng·h/mL | –
Cc1nc(N)ccc1CNC(=O)Cn1c(C)ccc(NS(=O)(=O)Cc2ccccc2)c1=O [L-374087] | 790 ng/mL | 1.78 h | 0.7 nM | – | – | 2670 ng·h/mL
Cc1nc(N)ccc1CNC(=O)Cn1c(C)cnc(NCCc2ccccc2)c1=O [L-375378] | 900 ng/mL | 3.32 h | 1 nM | – | – | 4580 ng·h/mL
